According to PMC11475570, “Impact of Optimized Ku–DNA Binding Inhibitors on the Cellular and In Vivo DNA Damage Response” (Cancers, 2024):

Key:
MDA-MB-436 [1] = assay: Doxorubicin combination, CCK-8; type: cell-based, Human; conditions: BRCA1 mutant MDA-MB-436, 20 µM 3392 pre-treatment 3 h, doxorubicin 72 h
Procedure: Supplementary Figure S5. Decreased sensitivity to Doxorubicin mediated by Ku-DBi in MDA-436 cells. […] (B) Pre-treatment with vehicle or 20 µM 3392 and media removed after 3 h, prior 72 h doxorubicin treatment after which cell viability was determined by CCK-8. Data are presented as the mean and SEM of triplicate determinations. […]

[2] = tested on: A549 NSCLC adenocarcinoma xenograft; assay: A549 NSCLC xenograft (CDX), intratumoral Ku-DBi with or without IR; type: in vivo, mice; conditions: for Ki-67 expression in tumors: IHC and Western blot
Procedure: The in vivo studies were conducted as approved by the Institutional Animal Care and Use Committee at Indiana University School of Medicine. A549 cells (~2.5 × 10^6) in 50% Matrigel were injected into the hind flanks of 8–10-week-old NOD.Cg-Rag1tm1Mom Il2rgtm1Wjl/SzJ (NRG) mice (IVT, In vivo Therapeutics Core, Indiana University Melvin and Bren Simon Comprehensive Cancer Center, Indianapolis, IN, USA) as previously described. Tumor volumes were monitored by electronic caliper measurement. Mice were randomized into groups of 3 or 4 using a random group generator; 6 different scenarios were generated, and the scenario with the most similar tumor volume averages across groups was selected. Treatments were initiated when tumors were ~600 mm^3. Tumors were administered Ku-DBi (30 µL of 10 mM) or vehicle (30 µL of DMSO) via intratumoral injection 4 h before 5 Gy irradiation of the tumor with a single dose of X-rays (250 kVp; dose rate = 1.4 Gy/min; 2 cm × 2 cm field) under isoflurane anesthesia. […] Mice were sacrificed 2 h post-irradiation (or 2 h post-sham irradiation); tumors were excised and processed for immunohistochemistry (IHC) assays. Cell-free protein extracts were prepared to assess DNA-PKcs autophosphorylation and γ-H2AX levels.
Protein lysates, ranging from 20 to 30 μg, were separated by SDS-PAGE (4–20% Mini Protean TGX Gels, BioRad, Hercules, CA, USA) and transferred onto PVDF membranes (Bio-Rad) through wet transfer. Membranes blocked in 0.5% Tween and 3% BSA in 1× TBS for 1 h were probed with the following primary antibodies: Phospho-DNA PKcs (S2056) (Cat: ab124918, Abcam, Cambridge, UK), total DNA-PKcs (Cat: sc-5282, Santa Cruz Biotechnology, Dallas, TX, USA), and γ-H2AX pS139 (Cat: 613401, BioLegend, San Diego, CA, USA). […] All primary antibodies were prepared with 3% BSA and 0.02% NaN3 in TBS with 0.5% Tween. Goat anti-rabbit or anti-mouse IgG (H + L)–HRP conjugates (Cat: 170-6515 or 170-6516, Bio-Rad) were used as secondary antibodies to detect these proteins. Imaging, densitometric analysis, and quantification of protein expression were performed as previously described.
Excised tumors were fixed in 4% paraformaldehyde (PFA) solution in PBS for 24 h at 4 °C. After fixation, tumors were transferred to 70% ethanol and paraffin embedding. Sectioning was completed by the Indiana University Histology Core at the IU School of Medicine. Representative 3 μm-thick sections for each treatment were stained with H and E (HE; Harris hematoxylin, regressive method) for histologic examination or were processed for Ki-67 IHC immunodetection. Briefly, paraffin-embedded sections were deparaffinized in a xylene series (4 × 3 min) and rehydrated in a series of graded alcohol dilutions (100%, 95%, 70%, and ddH2O, 2 × 2 min each). […]

MDA-MB-468 = assay: Bleomycin-sensitization activity, CCK-8; type: cell-based, Human; conditions: BRCA1 wild-type MDA-MB-468
Procedure: (§1) Cell metabolism/viability was assessed using a mitochondrial metabolism assay (CCK-8) kit (Cell Counting Kit-8, Cat: CK04, Dojindo Laboratories, Rockville, MD, USA) as previously described. Briefly, cells were seeded at a density of 3 × 10^3 cells per well in 96-well plates and allowed to adhere and stretch for 18–24 h prior to treatment. Cells were pre-treated with Ku-DBi for 24 h before bleomycin treatments. Subsequently, cells were incubated for an additional 48 h at 37 °C after which CCK-8 assay was performed. The absorbance of the formed formazan product in each well was measured at 450 nm and compared to vehicle-treated controls to determine percent cell viability. The results represent the average and SEM of triplicate determinations.

MDA-MB-436 [3] = assay: Bleomycin-sensitization activity, CCK-8; type: cell-based, Human; conditions: BRCA1 mutant MDA-MB-436
Procedure: as §1

A549 = assay: CCK-8 cell viability, single agent; type: cell-based, Human
Procedure: as §1

MDA-468 = assay: CCK-8 cell viability, single agent; type: cell-based, Human; conditions: Homo sapiens
Procedure: as §1

Ku 70/80 = molecular target: T1, Ku 70/80 (Homo sapiens, UniProt P12956+P13010); assay: EMSA Ku–DNA binding inhibition; conditions: 32P-labeled 30-bp duplex DNA, purified Ku 70/80, mean and SD of triplicate
T1 construct: made in house; host or cells: baculovirus-infected Sf9 cells
T1 sequence (P12956 whole entry): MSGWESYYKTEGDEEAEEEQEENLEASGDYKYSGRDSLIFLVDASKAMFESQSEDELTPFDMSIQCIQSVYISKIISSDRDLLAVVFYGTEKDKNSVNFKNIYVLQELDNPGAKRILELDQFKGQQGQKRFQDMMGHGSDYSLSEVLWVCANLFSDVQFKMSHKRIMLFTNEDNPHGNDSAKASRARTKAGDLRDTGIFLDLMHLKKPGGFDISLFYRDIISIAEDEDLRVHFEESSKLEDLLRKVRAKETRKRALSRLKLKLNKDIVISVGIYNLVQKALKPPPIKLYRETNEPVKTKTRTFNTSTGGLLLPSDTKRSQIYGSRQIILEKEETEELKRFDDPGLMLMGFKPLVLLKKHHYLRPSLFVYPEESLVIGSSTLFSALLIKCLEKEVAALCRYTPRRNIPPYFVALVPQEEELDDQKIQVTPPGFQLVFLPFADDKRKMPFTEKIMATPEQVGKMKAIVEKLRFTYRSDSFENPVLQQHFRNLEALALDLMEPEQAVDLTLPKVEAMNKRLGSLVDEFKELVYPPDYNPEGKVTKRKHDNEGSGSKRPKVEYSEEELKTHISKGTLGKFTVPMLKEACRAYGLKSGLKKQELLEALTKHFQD
T1 sequence (P13010 whole entry): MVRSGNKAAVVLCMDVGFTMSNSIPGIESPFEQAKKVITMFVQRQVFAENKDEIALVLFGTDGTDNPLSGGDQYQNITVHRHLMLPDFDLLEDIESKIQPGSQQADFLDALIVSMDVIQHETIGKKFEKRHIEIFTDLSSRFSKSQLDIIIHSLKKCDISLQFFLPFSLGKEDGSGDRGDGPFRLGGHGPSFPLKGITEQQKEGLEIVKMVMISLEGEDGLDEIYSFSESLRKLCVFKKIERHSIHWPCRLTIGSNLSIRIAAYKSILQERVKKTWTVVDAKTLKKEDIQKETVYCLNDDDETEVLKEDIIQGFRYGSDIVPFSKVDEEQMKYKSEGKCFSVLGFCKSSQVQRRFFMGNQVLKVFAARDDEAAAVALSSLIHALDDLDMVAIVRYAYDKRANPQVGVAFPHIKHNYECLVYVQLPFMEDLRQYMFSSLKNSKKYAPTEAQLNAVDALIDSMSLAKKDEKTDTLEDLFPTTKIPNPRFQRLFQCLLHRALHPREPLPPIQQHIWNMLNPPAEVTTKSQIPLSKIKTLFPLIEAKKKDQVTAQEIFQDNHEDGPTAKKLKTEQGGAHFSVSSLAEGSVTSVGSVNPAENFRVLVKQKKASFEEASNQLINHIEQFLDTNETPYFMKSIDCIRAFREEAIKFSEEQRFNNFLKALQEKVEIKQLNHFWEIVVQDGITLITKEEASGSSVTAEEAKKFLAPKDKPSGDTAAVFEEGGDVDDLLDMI
Procedure: The inhibitory activity of Ku-DBis on Ku-DNA binding was evaluated in vitro using Electrophoretic mobility shift assays (EMSA) with a [^32P]-labeled 30-bp duplex DNA and purified Ku 70/80. Kinase assays were performed to measure the DNA-dependent transfer of [^32P] from γ-[^32P] ATP to a synthetic p53-based peptide substrate, both as previously described. Both EMSA and DNA-PK inhibitor titration assays were performed in triplicate. Data were fit to standard binding curves using GraphPad Prism to determine IC50 values.

COc1ccc(-c2ccc(/C=C3\C(=O)N(c4cccc(C(=O)O)c4)c4ccccc43)o2)cc1C(=O)Nc1cccc(OC(F)(F)F)c1 [GL-3392]
Change in doxorubicin sensitivity (MDA-MB-436 [1]): decrease in Dox sensitivity | Ki-67 expression in tumors ([2]; 3392 intratumoral plus 5 Gy IR): statistically significant decrease in the Ki-67 expression | γ-H2AX in tumors ([2]; 3392 intratumoral plus 5 Gy IR, Western blot): further exacerbated in the combination-treated tumors | IR-induced DNA-PKcs autophosphorylation in tumors ([2]; intratumoral 30 µL of 10 mM, 4 h before 5 Gy, tumors taken 2 h post-irradiation, Western blot): effectively reversed the IR-induced DNA-PKcs autophosphorylation | Ki-67 expression in tumors ([2]; single-agent 3392, intratumoral): limited effects | Change in sensitivity to bleomycin (MDA-MB-468): increase in sensitivity | Change in sensitivity to bleomycin (MDA-MB-436 [3]): decrease in sensitivity to bleomycin | Cell viability at the highest concentrations assessed (A549; A549): ~50% | viability at 25 µM (A549; Homo sapiens, A549, 25 µM): 46.2 ± 3.8% | IC50 (A549; Homo sapiens, A549, CCK-8, 72 h, mean ± SD): > 50 µM | viability at 25 µM (MDA-468; MDA-468, 25 µM): 29.4 ± 1.3% | IC50 (MDA-468; MDA-468, CCK-8, 72 h, mean ± SD): 10.4 ± 1.5 µM | IC50 (Ku 70/80): 4.15 ± 1.07 µM
